Results published in patent publication US12077503B2, “Substituted cyclic amides and their use as herbicides” (FMC CORPORATION, priority 2015, dated 2024).

Experiments:
Type in all cases: in vivo
[1] = system: velvetleaf (Abutilon theophrasti); experiment: Test G Post-Emergence Protocol; conditions: Abutilon theophrasti, post-emergence, 312 h; for pest or weed control at 15.625 g/ha: 15.625 g ai/ha, evaluated after 13 days (100=total damage to plant; 0=no damage to plant), read-out: Velvetleaf damage rating; for pest or weed control at 62.5 g/ha: 62.5 g ai/ha, read-out: Velvetleaf damage rating (100=total damage to plant; 0=no damage to plant); for pest or weed control at 62.5 g/ha / pest or weed control at 250 g/ha: evaluated after 13 days; for pest or weed control at 250 g/ha: 250 g ai/ha, read-out: damage to plant, Velvetleaf (100=total damage to plant; 0=no damage to plant)
Outline: (§1)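 Pot-grown seedlings, 8 days old, raised in a glasshouse at 24/16 °C day/night with 14 h light and 65% humidity, were sprayed post-emergence with test compound in acetone/water (50:50) plus 0.5% Tween 20 at 15.625, 62.5 or 250 g/ha. Damage was scored visually 13 days later on a 0–100 scale (100 = total damage).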

[2] = system: giant foxtail (Setaria faberi); experiment: Test G Post-Emergence Protocol; conditions: Setaria faberi, post-emergence, 312 h; for pest or weed control at 15.625 g/ha: 15.625 g ai/ha, evaluated after 13 days (100=total damage to plant; 0=no damage to plant), read-out: Foxtail, Giant damage rating; for pest or weed control at 62.5 g/ha: 62.5 g ai/ha, read-out: Foxtail, Giant damage rating (100=total damage to plant; 0=no damage to plant); for pest or weed control at 62.5 g/ha / pest or weed control at 250 g/ha: evaluated after 13 days; for pest or weed control at 250 g/ha: 250 g ai/ha, read-out: damage to plant, Foxtail, Giant (100=total damage to plant; 0=no damage to plant)
Outline: as §1

[3] = system: ivy-leaved morning glory (Ipomoea hederacea); experiment: Test G Post-Emergence Protocol; conditions: Ipomoea, post-emergence, 312 h; for pest or weed control at 15.625 g/ha: 15.625 g ai/ha, evaluated after 13 days (100=total damage to plant; 0=no damage to plant), read-out: Morningglory, Ivy-leaved damage rating; for pest or weed control at 62.5 g/ha: 62.5 g ai/ha, read-out: Morningglory, Ivy-leaved damage rating (100=total damage to plant; 0=no damage to plant); for pest or weed control at 62.5 g/ha / pest or weed control at 250 g/ha: evaluated after 13 days; for pest or weed control at 250 g/ha: 250 g ai/ha, read-out: damage to plant, Morningglory, Ivy-leaved (100=total damage to plant; 0=no damage to plant)
Outline: as §1

[4] = system: barnyardgrass (Echinochloa crus-galli); experiment: Test G Post-Emergence Protocol; conditions: Echinochloa crus-galli, post-emergence, 312 h; for pest or weed control at 15.625 g/ha: 15.625 g ai/ha, evaluated after 13 days (100=total damage to plant; 0=no damage to plant), read-out: Barnyardgrass damage rating; for pest or weed control at 62.5 g/ha: 62.5 g ai/ha, read-out: Barnyardgrass damage rating (100=total damage to plant; 0=no damage to plant); for pest or weed control at 62.5 g/ha / pest or weed control at 250 g/ha: evaluated after 13 days; for pest or weed control at 250 g/ha: 250 g ai/ha, read-out: damage to plant, Barnyardgrass (100=total damage to plant; 0=no damage to plant)
Outline: as §1

[5] = system: redroot pigweed (Amaranthus retroflexus); experiment: Test G Post-Emergence Protocol; conditions: Amaranthus retroflexus, post-emergence, 312 h; for pest or weed control at 15.625 g/ha: 15.625 g ai/ha, evaluated after 13 days (100=total damage to plant; 0=no damage to plant), read-out: Pigweed, Redroot damage rating; for pest or weed control at 62.5 g/ha: 62.5 g ai/ha, read-out: Pigweed, Redroot damage rating (100=total damage to plant; 0=no damage to plant); for pest or weed control at 62.5 g/ha / pest or weed control at 250 g/ha: evaluated after 13 days; for pest or weed control at 250 g/ha: 250 g ai/ha, read-out: damage to plant, Pigweed, Redroot (100=total damage to plant; 0=no damage to plant)
Outline: as §1

[6] = system: corn (Zea mays); experiment: Test G Post-Emergence Protocol; conditions: Zea mays, post-emergence, 312 h; for plant injury at 15.625 g/ha: 15.625 g ai/ha, evaluated after 13 days (100=total damage to plant; 0=no damage to plant), read-out: Corn damage rating; for plant injury at 62.5 g/ha: 62.5 g ai/ha, read-out: Corn damage rating (100=total damage to plant; 0=no damage to plant); for plant injury at 62.5 g/ha / plant injury at 250 g/ha: evaluated after 13 days; for plant injury at 250 g/ha: 250 g ai/ha, read-out: damage to plant, Corn (100=total damage to plant; 0=no damage to plant)
Outline: as §1

[7] = system: velvetleaf (Abutilon theophrasti); experiment: Test G Pre-Emergence Protocol; conditions: Abutilon theophrasti, pre-emergence, 312 h, evaluated after 13 days; for pest or weed control at 15.625 g/ha: 15.625 g ai/ha; for pest or weed control at 15.625 g/ha / pest or weed control at 250 g/ha: read-out: Velvetleaf damage rating (100=total damage to plant; 0=no damage to plant); for pest or weed control at 62.5 g/ha: 62.5 g ai/ha, 100=total damage to plant, 0=no damage to plant, read-out: plant damage rating, Velvetleaf; for pest or weed control at 250 g/ha: 250 g ai/ha
Outline: (§2)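 Spraying took place one day after sowing, at 15.625, 62.5 or 250 g/ha, using an acetone/water (50:50) spray solution containing 0.5% Tween 20. Plants were kept under glasshouse conditions (24/16 °C, 14 h light, 65% humidity, watered twice daily), and injury was rated 0–100 at day 13.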

[8] = system: giant foxtail (Setaria faberi); experiment: Test G Pre-Emergence Protocol; conditions: Setaria faberi, pre-emergence, 312 h, evaluated after 13 days; for pest or weed control at 15.625 g/ha: 15.625 g ai/ha; for pest or weed control at 15.625 g/ha / pest or weed control at 250 g/ha: read-out: Foxtail, Giant damage rating (100=total damage to plant; 0=no damage to plant); for pest or weed control at 62.5 g/ha: 62.5 g ai/ha, 100=total damage to plant, 0=no damage to plant, read-out: plant damage rating, Foxtail, Giant; for pest or weed control at 250 g/ha: 250 g ai/ha
Outline: as §2

[9] = system: ivy-leaved morning glory (Ipomoea hederacea); experiment: Test G Pre-Emergence Protocol; conditions: Ipomoea, pre-emergence, 312 h, evaluated after 13 days; for pest or weed control at 15.625 g/ha: 15.625 g ai/ha, read-out: Morning-glory, Ivy-leaved damage rating (100=total damage to plant; 0=no damage to plant); for pest or weed control at 62.5 g/ha: 62.5 g ai/ha, 100=total damage to plant, 0=no damage to plant, read-out: plant damage rating, Morningglory, Ivy-leaved; for pest or weed control at 250 g/ha: 250 g ai/ha, read-out: Morningglory, Ivy-leaved damage rating (100=total damage to plant; 0=no damage to plant)
Outline: as §2

[10] = system: barnyardgrass (Echinochloa crus-galli); experiment: Test G Pre-Emergence Protocol; conditions: Echinochloa crus-galli, pre-emergence, 312 h, evaluated after 13 days; for pest or weed control at 15.625 g/ha: 15.625 g ai/ha, read-out: Barnyard grass damage rating (100=total damage to plant; 0=no damage to plant); for pest or weed control at 62.5 g/ha: 62.5 g ai/ha, 100=total damage to plant, 0=no damage to plant, read-out: plant damage rating, Barnyardgrass; for pest or weed control at 250 g/ha: 250 g ai/ha, read-out: Barnyardgrass damage rating (100=total damage to plant; 0=no damage to plant)
Outline: as §2

[11] = system: redroot pigweed (Amaranthus retroflexus); experiment: Test G Pre-Emergence Protocol; conditions: Amaranthus retroflexus, pre-emergence, 312 h, evaluated after 13 days; for pest or weed control at 15.625 g/ha: 15.625 g ai/ha; for pest or weed control at 15.625 g/ha / pest or weed control at 250 g/ha: read-out: Pigweed, Redroot damage rating (100=total damage to plant; 0=no damage to plant); for pest or weed control at 62.5 g/ha: 62.5 g ai/ha, 100=total damage to plant, 0=no damage to plant, read-out: plant damage rating, Pigweed, Redroot; for pest or weed control at 250 g/ha: 250 g ai/ha
Outline: as §2

[12] = system: corn (Zea mays); experiment: Test G Pre-Emergence Protocol; conditions: Zea mays, pre-emergence, 312 h, evaluated after 13 days; for plant injury at 15.625 g/ha: 15.625 g ai/ha; for plant injury at 15.625 g/ha / plant injury at 250 g/ha: read-out: Corn damage rating (100=total damage to plant; 0=no damage to plant); for plant injury at 62.5 g/ha: 62.5 g ai/ha, 100=total damage to plant, 0=no damage to plant, read-out: plant damage rating, Corn; for plant injury at 250 g/ha: 250 g ai/ha
Outline: as §2

Row | SMILES | pest or weed control at 15.625 g/ha [1] [%] | pest or weed control at 62.5 g/ha [1] [%] | pest or weed control at 250 g/ha [1] [%] | pest or weed control at 15.625 g/ha [2] [%] | pest or weed control at 62.5 g/ha [2] [%] | pest or weed control at 250 g/ha [2] [%] | pest or weed control at 15.625 g/ha [3] [%] | pest or weed control at 62.5 g/ha [3] [%] | pest or weed control at 250 g/ha [3] [%] | pest or weed control at 15.625 g/ha [4] [%] | pest or weed control at 62.5 g/ha [4] [%] | pest or weed control at 250 g/ha [4] [%] | pest or weed control at 15.625 g/ha [5] [%] | pest or weed control at 62.5 g/ha [5] [%] | pest or weed control at 250 g/ha [5] [%] | plant injury at 15.625 g/ha [6] [%] | plant injury at 62.5 g/ha [6] [%] | plant injury at 250 g/ha [6] [%] | pest or weed control at 15.625 g/ha [7] [%] | pest or weed control at 62.5 g/ha [7] [%] | other results
1 | Cc1nc(NC(=O)[C@@H]2C(=O)N(C)C[C@H]2c2ccc(C(F)(F)F)cc2)ccc1Cl (racemic) [Compound 1642] | 0 | 0 | 0 | 0 | 30 | 70 | 0 | 0 | 0 | 0 | 0 | 10 | 0 | 0 | 20 | 0 | 0 | 0 | 0 | 0 | pest or weed control at 250 g/ha [7]: 0%; pest or weed control at 15.625 g/ha [8]: 0%; pest or weed control at 62.5 g/ha [8]: 0%; pest or weed control at 250 g/ha [8]: 20%; pest or weed control at 15.625 g/ha [9]: 0%; pest or weed control at 62.5 g/ha [9]: 0%; pest or weed control at 250 g/ha [9]: 0%; pest or weed control at 15.625 g/ha [10]: 0%; pest or weed control at 62.5 g/ha [10]: 0%; pest or weed control at 250 g/ha [10]: 0%; pest or weed control at 15.625 g/ha [11]: 0%; pest or weed control at 62.5 g/ha [11]: 0%; pest or weed control at 250 g/ha [11]: 0%; plant injury at 15.625 g/ha [12]: 0%; plant injury at 62.5 g/ha [12]: 0%; plant injury at 250 g/ha [12]: 10%
2 | CSc1nc(N)cc(NC(=O)[C@@H]2C(=O)N(C)C[C@H]2c2ccc(C(F)(F)F)cc2)n1 (racemic) [Compound 1644] | 0 | 0 | 0 | 0 | 20 | 30 | 0 | 10 | 40 | 0 | 0 | 20 | 0 | 0 | 0 | 0 | 0 | 0 | 0 | 0 | pest or weed control at 250 g/ha [7]: 0%; pest or weed control at 15.625 g/ha [8]: 0%; pest or weed control at 62.5 g/ha [8]: 0%; pest or weed control at 250 g/ha [8]: 0%; pest or weed control at 15.625 g/ha [9]: 0%; pest or weed control at 62.5 g/ha [9]: 0%; pest or weed control at 250 g/ha [9]: 0%; pest or weed control at 15.625 g/ha [10]: 0%; pest or weed control at 62.5 g/ha [10]: 0%; pest or weed control at 250 g/ha [10]: 0%; pest or weed control at 15.625 g/ha [11]: 0%; pest or weed control at 62.5 g/ha [11]: 0%; pest or weed control at 250 g/ha [11]: 0%; plant injury at 15.625 g/ha [12]: 0%; plant injury at 62.5 g/ha [12]: 0%; plant injury at 250 g/ha [12]: 0%
3 | CN1C[C@@H](c2ccc(C(F)(F)F)cc2)[C@H](C(=O)Nc2cn[nH]c2)C1=O (racemic) [Compound 1646] | 0 | 0 | 0 | 0 | 10 | 20 | 0 | 0 | 0 | 0 | 0 | 0 | 0 | 0 | 0 | 0 | 0 | 0 | 0 | 0 | pest or weed control at 250 g/ha [7]: 0%; pest or weed control at 15.625 g/ha [8]: 0%; pest or weed control at 62.5 g/ha [8]: 0%; pest or weed control at 250 g/ha [8]: 0%; pest or weed control at 15.625 g/ha [9]: 0%; pest or weed control at 62.5 g/ha [9]: 0%; pest or weed control at 250 g/ha [9]: 0%; pest or weed control at 15.625 g/ha [10]: 0%; pest or weed control at 62.5 g/ha [10]: 0%; pest or weed control at 250 g/ha [10]: 0%; pest or weed control at 15.625 g/ha [11]: 0%; pest or weed control at 62.5 g/ha [11]: 0%; pest or weed control at 250 g/ha [11]: 0%; plant injury at 15.625 g/ha [12]: 0%; plant injury at 62.5 g/ha [12]: 0%; plant injury at 250 g/ha [12]: 0%
